Results from patent US5312816A, “Method of combatting osteoporosis in mammalian subjects, utilizing organic boron compounds” (priority 1993, dated 1994).
Like-named read-outs stand apart in the source and are kept apart here.

What was measured:
Acid phosphatase [1] = assay: Mouse hepatic lysosomal acid phosphatase activity; format: biochemical; conditions: Table V; mouse hepatic, 60 min incubation
Excerpt: (§1) 1. Cf1 male mouse hepatic 10% homogenates in 0.25M sucrose+0.001MEDTA,pH 7.2.
(§2) Lysosomal Enzymes - free and total [triton X-100].
(§3) 1. Acid phosphatase -beta glycerol-3-phosphate, pH 5.0, released IP 720 nm.
Acid phosphatase activity -

Cathepsin D [2] = biological target: T1, Cathepsin D (Mus musculus, UniProt P18242); assay: Mouse hepatic lysosomal cathepsin D activity; format: biochemical; conditions: Table V; mouse hepatic, 60 min incubation; read-out: Cathepsin D IC50
T1 construct: azocasein assay pH 5.0
T1 sequence (P18242 65-410): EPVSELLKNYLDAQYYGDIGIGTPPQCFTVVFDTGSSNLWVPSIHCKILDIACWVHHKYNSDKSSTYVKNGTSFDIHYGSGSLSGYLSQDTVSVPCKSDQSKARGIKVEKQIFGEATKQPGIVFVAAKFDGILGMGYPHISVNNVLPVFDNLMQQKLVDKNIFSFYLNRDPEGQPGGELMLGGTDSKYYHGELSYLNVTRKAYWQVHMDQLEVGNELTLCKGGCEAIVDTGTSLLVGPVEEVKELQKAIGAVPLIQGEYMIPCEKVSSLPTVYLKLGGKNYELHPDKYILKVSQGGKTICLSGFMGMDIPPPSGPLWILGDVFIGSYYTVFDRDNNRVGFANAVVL
Excerpt: as §1, §2
2. Acid Cathepsin D -azocasein-pH 5.0, hydrolytic azo-peptide produce 366 nm.
Cathepsin azo casein activity -

Prostaglandin synthetase = biological target: T2, Prostaglandin synthetase (Bos taurus, UniProt O62664); assay: Prostaglandin synthetase (cyclooxygenase), purified beef seminal vesicle; format: biochemical; conditions: Table IX; commercial enzyme preparation; read-out: Beef Prostaglandin Cyclooxygenase IC50
T2 construct: Prostaglandin synthetase purified beef seminal vesicle; from tissue
T2 sequence (O62664 25-600): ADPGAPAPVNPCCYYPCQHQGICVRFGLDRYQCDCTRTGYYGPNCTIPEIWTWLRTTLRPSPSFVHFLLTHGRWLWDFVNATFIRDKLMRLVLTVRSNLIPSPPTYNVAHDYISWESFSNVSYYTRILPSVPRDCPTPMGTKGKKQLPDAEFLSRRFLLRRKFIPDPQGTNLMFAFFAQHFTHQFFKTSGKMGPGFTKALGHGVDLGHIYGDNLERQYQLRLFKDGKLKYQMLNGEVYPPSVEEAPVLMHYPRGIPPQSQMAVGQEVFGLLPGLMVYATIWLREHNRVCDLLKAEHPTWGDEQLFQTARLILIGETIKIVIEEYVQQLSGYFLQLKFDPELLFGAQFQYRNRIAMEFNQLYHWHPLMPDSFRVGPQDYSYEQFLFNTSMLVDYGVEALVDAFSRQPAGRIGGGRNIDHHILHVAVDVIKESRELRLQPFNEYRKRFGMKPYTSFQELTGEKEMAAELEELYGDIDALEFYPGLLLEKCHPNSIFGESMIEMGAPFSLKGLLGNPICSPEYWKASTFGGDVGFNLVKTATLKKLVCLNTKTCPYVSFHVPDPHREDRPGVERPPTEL
Excerpt: (§4) Prostaglandin synthetase purified beef seminal vesicle ^3 H arachidonic acid (86.2 Ci/mmol), tlc separation.

Trypsin [3] = assay: Mouse hepatic trypsin activity; format: biochemical; conditions: Table VI; mouse hepatic, 60 min incubation; read-out: Trypsin IC50
Excerpt: as §1
(§5) 1. Trypsin- N-benzoyl-L-arginine ethyl ester pH 8.0, hydrolytic product 253 nm.

Elastase [4] = assay: Mouse hepatic elastase activity; format: biochemical; conditions: Table VI, 60 min incubation
Excerpt: as §1
(§6) 2. Elastase- N-succinyl-L-alanyl-L-alanine-p-nitroanilide, pH 8.0, p-nitro anilide 410 nm.
Elastase activity - in vitro

Acid phosphatase [5] = assay: Mouse macrophage acid phosphatase activity; format: cell-based; conditions: Table VII; mouse macrophage cultured cells, 60 min incubation; read-out: Acid Phosphatase IC50
Aryl sulphatase [6] = assay: Mouse macrophage aryl sulphatase activity; format: cell-based; conditions: Table VII; mouse macrophage cultured cells, 60 min incubation; read-out: Aryl Sulphatase IC50
Trypsin [7] = assay: Mouse macrophage trypsin (BAEE) activity; format: cell-based; conditions: Table VIII; mouse macrophages, 60 min incubation; read-out: Trypsin BAEE IC50
Elastase [8] = assay: Mouse macrophage elastase activity; format: cell-based; conditions: Table VIII; mouse macrophages, 60 min incubation; read-out: Elastase IC50
[9] = test system: Prostaglandin cyclooxygenase; assay: Mouse macrophage prostaglandin cyclooxygenase activity; format: cell-based; conditions: Table VIII; mouse macrophages, 60 min incubation; read-out: Prostaglandin Cyclooxygenase IC50
Excerpt: 3. Mouse macrophages J774A.1 BALB/c
as §4

Pg-E2 synthesis [10] = assay: 3H-Arachidonic acid conversion to Pg-E2, CF1 hepatic liver; format: biochemical, mouse
Pg-E2 synthesis [11] = assay: 3H-Arachidonic acid conversion to Pg-E2, macrophage; format: cell-based, mouse
Trypsin [12] = assay: Human osteoporosis fibroblasts trypsin (BAEE) activity; format: cell-based
Excerpt: as §5

Cathepsin D [13] = biological target: T3, Cathepsin D (Homo sapiens, UniProt P07339); assay: Human osteoporosis fibroblasts cathepsin D (azo-casein) activity; format: cell-based
T3 construct: azocasein assay pH 5.0
T3 sequence (P07339 65-412): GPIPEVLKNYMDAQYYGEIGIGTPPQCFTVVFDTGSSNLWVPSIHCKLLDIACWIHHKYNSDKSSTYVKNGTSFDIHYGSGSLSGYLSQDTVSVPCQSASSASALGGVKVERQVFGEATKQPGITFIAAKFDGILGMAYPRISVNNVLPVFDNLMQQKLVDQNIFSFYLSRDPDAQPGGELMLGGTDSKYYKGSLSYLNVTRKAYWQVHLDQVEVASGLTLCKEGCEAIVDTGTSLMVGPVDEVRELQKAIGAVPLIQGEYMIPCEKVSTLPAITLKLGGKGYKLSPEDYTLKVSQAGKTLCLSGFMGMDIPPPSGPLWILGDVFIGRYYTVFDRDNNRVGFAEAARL
Excerpt: Osteoporosis Human Fibroblast-CRL-1140, Be SA1

Acid phosphatase [14] = assay: Human osteoporosis fibroblasts acid phosphatase activity; format: cell-based
Excerpt: as §3

Aryl sulphatase [15] = assay: Human osteoporosis fibroblasts aryl sulphatase activity; format: cell-based
Excerpt: 3. Aryl sulphatase- p-nitrocatechol sulfate, pH
5. 8 p-nitro-catechol product 510 nm.

[16] = test system: Prostaglandin cyclooxygenase; assay: Human osteoporosis fibroblasts prostaglandin cyclooxygenase activity; format: cell-based; conditions: Table XI, 60 min incubation, read-out: Prostaglandin Cyclooxygense IC50
[17] = test system: lysosomal and proteolytic enzymes; assay: Osteoporosis fibroblasts lysosomal and proteolytic enzymes (statement); format: cell-based, human
[18] = biological target: Clostridium histolyticum Collagenase Type I; assay: Commercial collagenase type I; format: biochemical; conditions: Table IX; commercial enzyme preparation
Excerpt: 3. Collagenase I, Clostridium histolyticum, bone, skin, tendon, blood vessel, dentine, GI. substrate: rat collagen, N-[propionate-2-3-^3 H] propionylated measured as dpm released.

[19] = biological target: Clostridium histolyticum Collagenase Type II; assay: Commercial collagenase type II; format: biochemical; conditions: Table IX; commercial enzyme preparation
Excerpt: 4. Collagenase II, Clostridium histolyticum, cartilage collagen.

[20] = biological target: T4, Porcine Pancreatic Elastase (Sus scrofa, UniProt P00772); assay: Porcine pancreatic elastase activity in vitro; format: biochemical; conditions: Table IX; commercial enzyme preparation
T4 construct: purchased; host or cells: porcine pancreas
T4 sequence (P00772 27-266): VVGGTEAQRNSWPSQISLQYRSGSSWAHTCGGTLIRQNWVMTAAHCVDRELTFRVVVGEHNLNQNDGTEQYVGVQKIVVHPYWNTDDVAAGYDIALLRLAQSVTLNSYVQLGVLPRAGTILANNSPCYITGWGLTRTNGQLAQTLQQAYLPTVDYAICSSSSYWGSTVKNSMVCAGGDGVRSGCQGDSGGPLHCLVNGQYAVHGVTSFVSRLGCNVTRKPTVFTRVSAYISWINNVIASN
Excerpt: as §6

Hydroxyproline = assay: Serum and urine hydroxyproline levels in vivo; conditions: Cf1 male mice, 8 mg/kg/day I.P. 14 days, N=6
Calcium = assay: Serum and urine calcium levels in vivo; conditions: Cf1 male mice, 8 mg/kg/day I.P. 14 days, N=6
Cf1 male mice = assay: Writhing reflex, 0.6% acetic acid; format: in vivo; conditions: Mus musculus, ip; Table IV

CCCCCCCCCCCCCCCC[N+](C)(C)[BH2-]C(=O)O [Compound 7, N,N-Dimethylhexadecylamine-carboxyborane] was tested, and the IC50 (Acid phosphatase [1]) was 8.86 µM, the IC50 (Cathepsin D [2]) was 2.82 µM and the IC50 (Prostaglandin synthetase) was 2.86 µM. It also gave an IC50 (Trypsin [3]) of 1.16 µM, an IC50 (Elastase [4]) of 49.6 µM and an IC50 (Acid phosphatase [5]) of 0.94 µM. For the same molecule, the IC50 (Aryl sulphatase [6]) was 9.71 µM, the IC50 (Trypsin [7]) was 1.26 µM and the IC50 (Elastase [8]) was 1.8 µM. The IC50 [9] was 2.55 µM, the “hepatic Pg-E2 synthesis reduced” value (Pg-E2 synthesis [10]) was 32% and the “3H-Arachidonic acid conversion to Pg-E2 reduced” value (Pg-E2 synthesis [10]; CF1 hepatic liver) was 43%. The “macrophage Pg-E2 synthesis reduced” value (Pg-E2 synthesis [11]) was 20%, the “3H-Arachidonic acid conversion to Pg-E2 reduced” value (Pg-E2 synthesis [11]; macrophage) was 29% and the IC50 (Trypsin [12]; Table VIIIA, osteoporosis fibroblasts in vitro, read-out: Trypsin (BAEE) IC-50) was 7.4 µM. The IC50 (Trypsin [12]; Table XI, human osteoporosis fibroblasts, 60 min incubation, read-out: Trypsin BAEE IC50) was 7.4 µM, the IC50 (Cathepsin D [13]; Table VIIIA, osteoporosis fibroblasts in vitro, read-out: Cathepsin Azo-casein IC-50) was 2.06 µM and the IC50 (Cathepsin D [13]; Table X, human osteoporosis fibroblasts, DMEM +10% FCS + P/S, read-out: Cathepsin D IC50) was 2.06 µM. For the same molecule, the IC50 (Acid phosphatase [14]; Table VIIIA, osteoporosis fibroblasts in vitro, read-out: Acid Phosphatase IC-50) was 16.6 µM, the IC50 (Acid phosphatase [14]; Table X, human osteoporosis fibroblasts, read-out: Acid Phosphatase IC50) was 16.6 µM and the IC50 (Aryl sulphatase [15]; Table VIIIA, osteoporosis fibroblasts in vitro, read-out: Aryl Sulfatase IC-50) was 9.01 µM. The IC50 (Aryl sulphatase [15]; Table X, human osteoporosis fibroblasts, read-out: Aryl Sulphatase IC50) was 9.01 µM, the IC50 [16] was 6.77 µM and the “inhibition of lysosomal and proteolytic enzymes of osteoporosis fibroblasts” value [17] was “potent inhibitors”. The IC50 [18] was 615 µM, the IC50 [19] was 109 µM and the IC50 [20] was 49.7 µM. The Hydroxyproline serum (Hydroxyproline) was 84.1 % Control, the Hydroxyproline urine (Hydroxyproline) was 28.7 % Control and the Calcium urine (Calcium) was 80.7 % Control. For the same molecule, the response vs control in vivo at 20 mg/kg (Cf1 male mice) was 54%.
